Results on three compounds are retold here after US12428428B2, “Tricyclic tetrahydroisoquinoline derivative, preparation method therefor and application thereof in medicine” (JIANGSU HENGRUI MEDICINE CO., LTD., priority 2020, dated 2025).

Holding throughout (type): cell-based
The test system of one assay is MCF-7 cells. The assay is described as follows: Inhibition of proliferation of MCF-7 cells (ATP method, Cell Titer-Glo). The conditions noted are these: for IC50: Homo sapiens, MCF7, MCF-7 cells, 72 h; for inhibitory effects on the proliferation of MCF-7 cells (in words): conclusion. As for the experimental part:
This experiment was intended to test the inhibitory effects of the compounds disclosed herein on the proliferation of MCF-7 Cells by using the ATP method, and to evaluate the in vitro activity of the compounds according to the IC50 values.
MCF-7 cells (TCHu74, National Collection of Authenticated Cell Cultures) were seeded into a 96-well plate with an MEM (hyclone, SH30024.01B) medium containing 10% FBS (Gibco, 10099-141), 1% sodium pyruvate (sigma, 58636) and 1% non-essential amino acid (sigma, M7145) at a density of 4,000 cells/well and cultured at 37° C. with 5% CO2. 20 mM stock solutions of the compounds are prepared, serially diluted with 100% DMSO to a final concentration of 1000×, and then diluted 20-fold with a medium containing 2% FBS. After the cells were cultured for 24 h, the medium was removed. 90 μL of the medium containing 2% FBS and 10 μL of a drug were added to each well, and 10 μL of DMSO was added to the control group. The mixtures were well mixed by gentle shaking. The blank group contained only 100 μL of the medium containing 2% FBS. The cells were cultured in an incubator at 37° C. with 5% CO2 for 72 h, and then 50 μL of mixed Cell Titer-Glo (Promega, G7571) was added to each well. The mixtures were well mixed by shaking and let stand at room temperature for 10 min, and the chemiluminescence signal values were determined.
The chemiluminescence signal value was plotted against the compound concentration (in log form) using Graphpad Prism, and the IC50 values of the compounds were obtained.

Another assay deals with ERα (Homo sapiens (Human), UniProt P03372). The assay is described as follows: Degradation of ERα in MCF-7 cells (ELISA). Particulars: for DC50: MCF-7 cells, 16 to 18 h, read-out: EC50 (nM), degradation of ERα; for degradation of ERα (in words): conclusion. As for the experimental part: ERα-positive breast cancer cell line MCF-7 cells were cultured in a DMEM/F12 medium (HyClone, SH30023.01) containing 10% fetal bovine serum (Corning, 35-010-CV). […] The following day the compounds were serially diluted with DMSO and further diluted with the phenol red-free DMEM/F12 medium containing 5% charcoal-stripped fetal bovine serum. 20 μL of a diluted compound was added to each well of the 48-well plate at final concentrations of 3000, 300, 30, 3, 0.3, 0.03 and 0.003 nM. The 48-well plate was placed in the incubator for 16 to 18 h. A 96-well plate was coated with the capture antibody from the human ERα/NR3A1 total protein assay kit (R&D, DYC5715-5). […] The plate was placed in an incubator at 26° C. overnight. On day 3, the antibody-coated 96-well plate was washed once with PBS, and 200 μL of PBS containing 1% BSA was added to each well. The plate was incubated in an incubator at 37° C. for 1.5 h to be blocked. The cell culture medium supernatant was discarded. The cells were washed once with PBS, and 60 μL of a cell lysis buffer was added to each well. […] The cells were lysed on ice for 15 min, and 300 μL of PBS containing 1 mM EDTA and 0.5% TritonX-100 was added to each well to dilute the urea to 1 M. The blocking buffer in the blocked 96-well plate was discarded, and 100 μL of diluted cell lysis buffer was added to each well. The plate was incubated in an incubator at 37° C. for 2 h and washed 5 times with PBS. A biotinylated assay antibody was diluted to 0.4 μg/mL with PBS containing 1% BSA, and then 100 μL of the assay antibody was added to each well. The plate was incubated in an incubator at 37° C. for 1 h. The plate was then washed five more times, and 100 μL of avidin-HRP diluted 200-fold with PBS containing 1% BSA was added to each well. The plate was incubated at 37° C. for 30 min. The plate was washed five more times, and 100 μL of TMB substrate was added to each well. The plate was incubated at room temperature until blue color appeared, and 100 μL of stop solution was added to each well. OD450 signal values were read using a PHERAstar multi-mode microplate reader. The IC50 values for the inhibitory activity of the compounds were calculated using Graphpad Prism software.
In general terms: An ELISA detects its analyte on a solid surface through an enzyme-linked reagent.

The next assay addresses ER (estrogen receptor) (Homo sapiens (Human), UniProt P03372). The assay is described as follows: Inhibition of binding of E to ER (MCF-7/ERE-luciferase reporter cells). The conditions noted are these: MCF-7/ERE-luciferase cells, 0.1 nM estradiol, 24 h. The procedure:
The compounds of the present disclosure can inhibit the binding of E (estrogen) to ER (estrogen receptor), thereby blocking the binding of the complex of E and ER to ERE (estrogen response element), and consequently the expression of downstream luciferase proteins. The inhibitory effects of the compounds of the present disclosure on the binding of E to ER was tested by using the following method.
An ERE was cloned upstream of the luciferase gene, and MCF-7/ERE-luciferase monoclonal cells were selected by transfection of MCF-7 (TCHu74, National Collection of Authenticated Cell Cultures). The MCF-7/ERE-luciferase cells were seeded into a 96-well plate with an MEM (hyclone, SH30024.01B) medium containing 10% charcoal stripped FBS (Moregate, FBSF), 1% sodium pyruvate (sigma, S8636), 1% non-essential amino acids (sigma, M7145) and 500 μg/mL G418 at a density of 30,000 cells/well and cultured at 37° C. with 5% CO2. 20 mM stock solutions of the drugs are prepared, serially diluted 10-fold with 100% DMSO, and then diluted 20-fold with the medium. After the cells were cultured for 24 h, the medium was removed. 0.1 nM estradiol (sigma, E2758) and 10 μL of a medium-diluted drug were added to each well, and DMSO was added to the control group. The mixtures were well mixed by gentle shaking. The cells were cultured in an incubator at 37° C. with 5% CO2 for 24 h, and then the cell culture liquid was removed, followed by the addition of 50 μL of a luciferase substrate (Promega, E6110) to each well. The plate was let stand at room temperature in the dark for 10-15 min, and the chemiluminescence signal values were determined.
The inhibitory effects of the compounds of the present disclosure on the binding of E to ER were tested through the above experiment. The chemiluminescence signal value was plotted against the compound concentration (in log form) using Graphpad Prism, and the IC50 values of the compounds were obtained.
(In general: A reporter such as luciferase makes a cellular process visible.)

Chain of ERα (P03372 whole entry): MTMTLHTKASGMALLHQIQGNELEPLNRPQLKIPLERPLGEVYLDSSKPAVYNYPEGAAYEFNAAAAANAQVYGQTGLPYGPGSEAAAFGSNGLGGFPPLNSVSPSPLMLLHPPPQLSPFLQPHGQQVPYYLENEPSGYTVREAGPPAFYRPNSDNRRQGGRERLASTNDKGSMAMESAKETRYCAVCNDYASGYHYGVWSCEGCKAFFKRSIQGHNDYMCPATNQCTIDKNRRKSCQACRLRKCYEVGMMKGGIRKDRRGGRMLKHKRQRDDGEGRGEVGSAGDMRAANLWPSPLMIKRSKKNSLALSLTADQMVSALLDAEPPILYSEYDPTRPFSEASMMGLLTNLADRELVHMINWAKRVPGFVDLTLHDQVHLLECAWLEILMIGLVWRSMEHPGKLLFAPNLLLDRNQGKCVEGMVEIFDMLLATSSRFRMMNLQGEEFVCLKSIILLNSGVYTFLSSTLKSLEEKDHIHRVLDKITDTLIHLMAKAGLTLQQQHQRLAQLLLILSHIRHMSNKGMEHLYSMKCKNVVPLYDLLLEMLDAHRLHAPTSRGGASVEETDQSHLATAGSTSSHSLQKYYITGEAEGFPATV
Chain of ER (estrogen receptor) (P03372 whole entry): as above

For `C[C@@H]1Cc2ccc3c(=O)[nH][nH]c(=O)c3c2[C@@H](c2ccc(NC3CN(CCCF)C3)cn2)N1CC(F)(F)CO` [Example 21, reference compound], in the assay with MCF-7 cells, the IC50 (as a rule, the concentration at which inhibition is half-maximal) is > 10000 nM and the “inhibitory effects on the proliferation of MCF-7 cells (in words)” value was “no activity”. Besides, at ERα, the DC50 was > 10000 nM and the “degradation of ERα (in words)” value is on record as “no activity”.
As for `C[C@@H]1Cc2ccc3c(c2[C@@H](c2ccc(NC4CN(CCCF)C4)cn2)N1CC(F)(F)CO)C(=O)NC3=O` [Example 20, (7R,9S)-8-(2,2-difluoro-3-hydroxypropyl)-9-(5-((1-(3-fluoropropyl)azetidin-3-yl)amino)pyridin-2-yl)-7-methyl-6,7,8,9-tetrahydro-1H-pyrrolo[3,4-h]isoquinoline-1,3(2H)-dione, reference compound], in the assay with MCF-7 cells, the IC50 is > 10000 nM and the “inhibitory effects on the proliferation of MCF-7 cells (in words)” value is listed as “no activity”. On ERα, the DC50 was > 10000 nM and the “degradation of ERα (in words)” value is given as “no activity”.
For `C[C@@H]1Cc2cc3c(cc2[C@@H](c2ccc(NC4CN(CCCF)C4)cc2)N1CC(F)(F)F)OCO3` [Example 16, 1-(3-Fluoropropyl)-N-(4-((5R,7R)-7-methyl-6-(2,2,2-trifluoroethyl)-5,6,7,8-tetrahydro-[1,3]dioxolo[4,5-g]isoquinolin-5-yl)phenyl)azetidin-3-amine], the IC50 at ER (estrogen receptor) was 0.27 nM.
